According to patent US20070077283A1, “METHOD OF ENHANCING TRANSMUCOSAL DELIVERY OF THERAPEUTIC COMPOUNDS” (Nastech Pharmaceutical Company Inc., priority 2005, published 2007):
Values joined by “and” are separate entries in the source; they are usually repeats but may differ in a detail not shown here. Identical values can stand only once.

Columns and labels:
[1] = system: human-derived tracheal/bronchial epithelial cells (EpiAirway Tissue Model); test: Transepithelial electrical resistance (TER) of an epithelial cell monolayer; type: cell-based; settings: for activity at 500 µM / activity at 1000 µM: Homo sapiens, Epithelial cell, 1 h, read-out: Mean % of Original TER Value; for activity at 500 µM: lipid 500 μM (Table 4); for activity at 1000 µM: lower value = greater TER reduction (Table 4); for TER reduction within 15 minutes: 15 minute incubation
Method in brief: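 EpiAirway human tracheal/bronchial epithelial tissue inserts, fed daily during recovery; resistance read with EVOM voltohmmeter in Endohm-12 chamber in MatTek medium, blank-insert background (about 5-20 ohms) measured. TER normalised to tissue surface area, expressed as Ohms*cm2 and percent of original TER; lower TER taken as enhanced permeation.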

in vitro = test: in vitro
Method in brief: (§1)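 EpiAirway cultures treated 1 h with each lipid; PBS as negative control. LDH released apically and basolaterally measured colorimetrically at 490 nm after 30 min substrate incubation at room temperature. Cytotoxicity expressed as percent of 1% Triton X-100 lysis control, set to 100%.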

[2] = system: human-derived tracheal/bronchial epithelial cells (EpiAirway Tissue Model); test: in vitro
Method in brief: as §1

[3] = system: human-derived tracheal/bronchial epithelial cells (EpiAirway Tissue Model); test: FITC-Dextran permeation assay across epithelial cell monolayer; type: cell-based; settings: for Mean % FD3 Permeation: FITC-dextran 3000 (Table 4); for permeation of FD3 relative to negative controls: text summary of Table 4
Method in brief: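 Formulations applied apically to EpiAirway tissue inserts, shaken ~100 rpm 1.5 hours at 37 °C, with FITC-dextran (3-500 kDa) added apically. Basolateral fluorescence read at 470 nm in triplicate; result expressed as percent of FITC-dextran crossing apical to basolateral.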

[4] = % Cytotoxicity, lipid 1000 μM in Buffer I, apical LDH release
[5] = % Cytotoxicity, lipid 1000 μM in Buffer II, apical LDH release
[6] = in the presence of FITC-Dextran FD3 (Table 6)
[7] = in the presence of FITC-Dextran FD10 (Table 6)
[8] = in the presence of FITC-Dextran FD40 (Table 6)
[9] = in the presence of FITC-Dextran FD70 (Table 6)
[10] = in the presence of FITC-Dextran FD500 (Table 6)
[11] = lipid 1000 μM, percent decrease in TER from time zero

Compound	activity at 500 µM [1]	activity at 1000 µM ([1]; lipid 1000 μM)	% Original TER ([1]; lipid 1000 μM in Buffer I)	% Original TER ([1]; lipid 1000 μM in Buffer II)	TER reduction within 15 minutes ([1]; lipid 1000 μM)	Mean % FD3 Permeation ([3]; lipid 500 μM)	% FITC-Dextran Permeation FD10 ([3]; lipid 1000 μM)	% FITC-Dextran Permeation FD40 ([3]; lipid 1000 μM)	% FITC-Dextran Permeation FD70 ([3]; lipid 1000 μM)	% FITC-Dextran Permeation FD500 ([3]; lipid 1000 μM)	% FITC-Dextran Permeation FD3 ([3]; lipid 1000 μM (Table 5))	% FD3 Permeation ([3]; lipid 1000 μM in Buffer I)	% FD3 Permeation ([3]; lipid 1000 μM in Buffer II)	Mean % FD3 Permeation ([3]; lipid 1000 μM)	permeation of FD3 relative to negative controls [3]	cytotoxicity at 1 h, 1000 μM (in vitro; [4])	cytotoxicity at 1 h, 1000 μM (in vitro; [5])	% Relative Cytotoxic Effect (LDH) [2, 6]	% Relative Cytotoxic Effect (LDH) [2, 7]	% Relative Cytotoxic Effect (LDH) [2, 8]	also measured
CCCCCCCCCCCCCCCCCCOC[C@H](COP(=O)([O-])OCC[N+](C)(C)C)OC(C)=O [C18-02:0 PC(C18 PAF), 1-O-Octadecyl-2-Acetoyl-sn-Glycero-3-Phosphocholine]	44%	1%	1%	7%	levels equivalent to that of the Triton-X100™ control	2%	8%	3%	2%	0%	24%	42%	27%	8%	enhanced the permeation of FD3 above that of the negative controls	–	–	–	–	–	cytotoxicity at 1 h, 1000 μM (in vitro; human, % Cytotoxicity): 33%; Mean % Relative Cytotoxic Effect (LDH) ([2]; human, 1 h, 500 μM): 8%; % Cytotoxicity ([2]; human, 1 h, 1000 μM): 17%; Mean % Relative Cytotoxic Effect (LDH) ([2]; human, 1 h, 1000 μM): 20%
CCCCCCCCCCCCCCCCOC[C@H](COP(=O)([O-])OCC[N+](C)(C)C)OC(C)=O [C16-02:0 PC(C16 PAF), 1-O-Hexadecyl-2-Acetoyl-sn-Glycero-3-Phosphocholine]	27%	2%	1%	8%	levels equivalent to that of the Triton-X100™ control	5%	6%	2%	2%	0%	22%	41%	27%	14%	enhanced the permeation of FD3 above that of the negative controls	43%	13%	32%	35%	31%	cytotoxicity at 1 h (in vitro; % Cytotoxicity, lipid / PYY 10 mg/mL): 23%; % Relative Cytotoxic Effect (LDH) [2, 9]: 35%; % Relative Cytotoxic Effect (LDH) [2, 10]: 26%; Mean % Relative Cytotoxic Effect (LDH) ([2]; lipid 500 μM (Table 4)): 20%; Mean % Relative Cytotoxic Effect (LDH) ([2]; lipid 1000 μM (Table 4)): 32%
CC(C)C[C@H](NC(=O)[C@H](C)NC(=O)[C@H](CCCCN)NC(=O)[C@H](CC(C)C)NC(=O)[C@H](C)NC(=O)[C@H](CC(C)C)NC(=O)[C@H](CCCCN)NC(=O)[C@H](CC(C)C)NC(=O)[C@H](C)NC(=O)[C@H](CC(C)C)NC(=O)[C@@H](N)CCCCN)C(=O)N[C@@H](CCCCN)C(=O)N[C@@H](C)C(=O)N[C@@H](C)C(=O)N[C@@H](CC(C)C)C(=O)N[C@@H](CCCCN)C(=O)N[C@@H](CC(C)C)C(=O)N[C@@H](C)C(N)=O [PN159, reference compound]	–	–	–	–	–	–	–	–	–	–	–	–	–	–	–	–	–	–	–	–	% Original TER ([1]; PN159 25 μM / PYY 13.67 mg/mL (High)): 10%; % of the original TER value ([1]; controls of the further test of lipids at 250 μM to 1000 μM (b219-b220)): 8%; Mean TER Reduction 1 hr. Post-treatment ([1]; positive control PN159 25 μM): 85% and 87%; cytotoxicity at 1 hour, 25 μM (in vitro): 33%; % FITC-Dextran Permeation FD10 ([3]; PN159 25 μM): 4%; % FITC-Dextran Permeation FD40 ([3]; PN159 25 μM): 2%; % FITC-Dextran Permeation FD3 ([3]; PN159 25 μM (Table 5)): 7%
CCCCCCCCCCCCCCCCOC[C@@H](COP(=O)([O-])OCC[N+](C)(C)C)OC(C)=O [C16 Enantiomeric PAF, 3-O-Hexadecyl-2-Acetoyl-sn-Glycero-1-Phosphocholine]	–	1%	2%	9%	levels equivalent to that of the Triton-X100™ control	–	4%	2%	1%	0%	20%	46%	23%	11%	enhanced the permeation of FD3 above that of the negative controls	34%	14%	34%	32%	36%	% Relative Cytotoxic Effect (LDH) [2, 9]: 31%; % Relative Cytotoxic Effect (LDH) [2, 10]: 33%; Mean % Relative Cytotoxic Effect (LDH) ([2]; lipid 1000 μM (Table 4)): 35%
CCCCCCCCCCCCCCCC(=O)OC[C@H](COP(=O)([O-])OCC[N+](C)(C)C)OC(=O)CCCC(=O)O [PGPC, 1-Palmitoyl-2-Glutaroyl-sn-Glycero-3-Phosphocholine]	–	–	–	–	–	–	–	–	–	–	–	–	–	–	–	–	–	–	–	–	Mean TER Reduction 1 hr. Post-treatment ([1]; lipid 62.5 μM): 21%; Mean TER Reduction 1 hr. Post-treatment ([1]; lipid 125 μM): 28%; Mean TER Reduction 1 hr. Post-treatment ([1]; lipid 250 μM): 48%; Mean TER Reduction 1 hr. Post-treatment ([1]; lipid 500 μM): 80%; Mean TER Reduction 1 hr. Post-treatment [1, 11]: 92%; cytotoxicity at 1 h, 500 μM (in vitro; human, % Cytotoxicity): 2%; LDH levels ([2]; human, 1 h): below 30%; Cytotoxic Effect (LDH) 1 hr. Post-treatments ([2]; human, 1 h, 62.5 μM): 2%; Cytotoxic Effect (LDH) 1 hr. Post-treatments ([2]; human, 1 h, 125 μM): 2%; Cytotoxic Effect (LDH) 1 hr. Post-treatments ([2]; human, 1 h, 250 μM): 4%; Cytotoxic Effect (LDH) 1 hr. Post-treatments ([2]; human, 1 h, 500 μM): 13%; Cytotoxic Effect (LDH) 1 hr. Post-treatments ([2]; human, 1 h, 1000 μM): 21%; % FITC-Dextran Permeation FD3 ([3]; lipid 500 μM (Table 5)): 10%
CCCCCCCCCCCCCCCC(=O)OC[C@H](COP(=O)([O-])OCC[N+](C)(C)C)OC(=O)CCCC=O [POVPC, 1-Palmitoyl-2-(5′-oxo-Valeroyl)-sn-Glycero-3-Phosphocholine]	–	0%	25%	17%	–	–	3%	1%	0.3%	0%	10%	53%	9%	10%	enhanced the permeation of FD3 above that of the negative controls	15%	15%	19%	11%	13%	TER reduction by 60 minutes ([1]; 1000 μM, 60 minutes): levels nearly equivalent to that of the Triton-X100™ control; TER reduced to % below that of the PBS control ([1]; 1000 μM, within 15 minutes): 20%; TER reduced to % of the PBS control ([1]; 1000 μM, within 30 minutes): about 25%; Mean TER Reduction 1 hr. Post-treatment ([1]; lipid 62.5 μM): 23%; Mean TER Reduction 1 hr. Post-treatment ([1]; lipid 125 μM): 32%; Mean TER Reduction 1 hr. Post-treatment ([1]; lipid 250 μM): 52%; Mean TER Reduction 1 hr. Post-treatment ([1]; lipid 500 μM): 87%; Mean TER Reduction 1 hr. Post-treatment [1, 11]: 93%; % Relative Cytotoxic Effect (LDH) [2, 9]: 13%; % Relative Cytotoxic Effect (LDH) [2, 10]: 12%; Cytotoxic Effect (LDH) 1 hr. Post-treatments ([2]; lipid 62.5 μM, percent of Triton-X100 LDH levels): 2%; Cytotoxic Effect (LDH) 1 hr. Post-treatments ([2]; lipid 125 μM, percent of Triton-X100 LDH levels): 2%; Cytotoxic Effect (LDH) 1 hr. Post-treatments ([2]; lipid 250 μM, percent of Triton-X100 LDH levels): 5%; Cytotoxic Effect (LDH) 1 hr. Post-treatments ([2]; lipid 500 μM, percent of Triton-X100 LDH levels): 11%; Mean % Relative Cytotoxic Effect (LDH) ([2]; lipid 1000 μM (Table 4)): 9%; LDH levels for each incubation time period ([2]; lipid 1000 μM, 15, 30 and 60 minute incubation): below 10%; Cytotoxic Effect (LDH) 1 hr. Post-treatments ([2]; lipid 1000 μM, percent of Triton-X100 LDH levels): 21%; permeation of FITC-dextran 3000 (FD3) over time ([3]; 1000 μM, 15, 30, 60 minutes): time-dependent permeation; % FITC-Dextran Permeation FD3 ([3]; lipid 500 μM (Table 5)): 2%
C=CCC(=O)O[C@H](COCCCCCCCCCCCCCCCC)COP(=O)([O-])OCC[N+](C)(C)C [C16-04:1 PC]	11%	-2%	2%	23%	–	6%	8%	3%	0%	0%	25%	44%	8%	12%	enhanced the permeation of FD3 above that of the negative controls	–	–	–	–	–	Mean % Relative Cytotoxic Effect (LDH) ([2]; human, 1 h, 500 μM): 18%; Mean % Relative Cytotoxic Effect (LDH) ([2]; human, 1 h, 1000 μM): 27%
